In patent publication US9408926B2, “KDR and VEGF/KDR binding peptides and their use in diagnosis and therapy” (Bracco Suisse S.A., priority 2002, dated 2016):
Several values for one entry are separate records, joined by “and”; a condition that tells them apart may be missing. Equal values may be shown once.

What was measured:
[1] = tested on: VEGF-induced migration of HUVECs; test: VEGF-induced HUVEC migration assay; assay type: cell-based, human; details: for IC50: VEGF 10 ng/mL, 22 hours, read-out: IC50 for blocking VEGF-induced migration
Protocol: After 22 hours, quantitation of cell migration/invasion was achieved by post-labeling cells in the insert plates with a fluorescent dye and measuring the fluorescence of the invading/migrating cells in a fluorescent plate reader. The VEGF-induced migration was calculated by subtracting the migration that occurred when only basal medium was placed in the lower chamber of the wells.
(§1) Serum-starved HUVECs were placed, 100,000 cells per well, into the upper chambers of BD fibronectin-coated FluoroBlok 24-well insert plates. […] After 22 hours, quantitation of cell migration/invasion was achieved by post-labeling cells in the insert plates with a fluorescent dye and measuring the fluorescence of the invading/migrating cells in a fluorescent plate reader. The VEGF-induced migration was calculated for each experimental condition by subtracting the amount of migration that occurred when only basal medium was added to the lower chamber of the wells.
as §1, with “reader.” for “reader. The”, “observed in” for “that occurred when only basal medium was added to”, “absence” for “lower chamber”, “VEGF.” for “the wells.”
as §1, with “VEGF-stimulated” for “The VEGF-induced”, “derived” for “calculated for each experimental condition”, “basal migration measured in the absence” for “amount”, “VEGF.” for “migration that occurred when only basal medium was added to the lower chamber of the wells.”
Serum-starved HUVECs were placed, 100,000 cells per well, into the upper chambers of BD fibronectin-coated FluoroBlok 24-well insert plates. […] After 22 hours, quantitation of cell migration/invasion was achieved by post-labeling cells in the insert plates with a fluorescent dye and measuring the fluorescence of the invading/migrating cells in a fluorescent plate reader.

KDR = test: KD, B (μM)
Text: Head of the field: KD, B (μM)
Where the first naming reader finds the target: passage: truncated polypeptides tested for binding to KDR-expressing cells.

[2] = molecular target: T1, KDR expressed in transiently-transfected 293H cells (Homo sapiens, UniProt P35968); test: Binding of biotinylated peptide/neutravidin-HRP complexes to KDR-transfected 293H cells; assay type: cell-based; details: for Reduction of binding of peptide/avidin HRP complex in presence of serum: 40% rat serum, single concentration 2.22-6.66 nM; for Binding of tetrameric peptide/avidin-HRP complexes to KDR-transfected cells: 3.33 nM complex
T1 construct: Both PCR products were digested with Not1 and ligated together to create the full-length receptor; V5-His (of vector pcDNA6/V5-His C); expressed in transfected cells; host or cells: 293H cells (Invitrogen cat. #11631), transient, lipofectamine 2000

[3] = tested on: KDR-expressing NMU-induced mammary tumor; test: Contrast ultrasound with D5-containing microbubbles to monitor sunitinib treatment of NMU-induced tumors; assay type: in vivo, rat; details: for Area *10 (tumor size, fundamental B-mode): sunitinib 40 mg/kg/day from day 106, values multiplied by 10
Protocol: Four (4) female OFA rats (Charles River, Lyon, France) were investigated. At the specific age of 42 days, animals received intraperitoneal injection of N-methyl-N-nitrosourea 50 mg/kg (NMU, Sigma-Aldrich, ref D3254) prepared in 0.9% NaCl, in order to develop a KDR-expressing tumor in the animals (see latency period infra). […] Animals received food and water (tap water) ad libitum.
Stock solution was made weekly and stored at 4° C.
At the level of the tumor site, skin was gently shaved and an ultrasound coupling gel (Aquasonic 100, Parker, USA) was applied between the clinical ultrasound probe and the skin.
The linear probe L12-5 was used.
Vials of a contrast agent containing D5 were reconstituted in 2 ml glucose 5%. […] Emulsification was effected at 12′000 rpm (five minutes). The lyophilizate was reconsistituted as described above. The contrast agent was quickly injected through the catheter placed in the caudal vein at the dose of 2 μl gas per kg. […] Injections were performed at a constant rate of 4 ml/min.
Tumor size was assessed in fundamental-B mode […].
Contrast enhancement was quantified from Dicom files using an in-house quantification and providing, among other parameters, mean echo-signal values in areas of interest as a function of time. The amplitude of the echo signal was expressed as linearized echo amplitude values. Individual frames were analyzed, time-intensity curves were generated and Maximum intensity (Imax) was determined as an index of tumor vascularization and late phase opacification (LPO) was determined at 10 min after injection in the median plane of the tumor.

[4] = tested on: SW-480 human colon carcinoma cells; test: In vivo inhibition of tumor growth, SW-480 xenograft in nude mice; details: for Tumor Weights: 6 mg/kg IV
Protocol: Female athymic nude mice (Crl:NU/NU-nuBR) at 6-8 weeks of age were used in this study. […] Test Articles and vehicle were administered intraperitoneally (IP), Cisplatin was administered intravenously (IV). Tumor measurements were recorded twice weekly using hand-held calipers. Mice were monitored daily for signs of toxicity and morbidity. At study termination, animals were euthanized by carbon dioxide overdose and necropsied for tissue collection.
A total of nine (9) groups were used in this study. Each group contained ten (10) tumor-bearing mice. Groups 1 and 2 contained untreated and vehicle treated negative control mice, respectively. […] Group 9 contained mice that received cisplatin, a standard chemotherapeutic compound as a positive control.
Dosing began the same day that animals were randomly sorted into groups (Study Day 7). Each dose was removed from the dose vial using aseptic technique for each animal and the injection site was wiped with an alcohol swab prior to dose administration. Doses were administered with a 1.0 mL syringe and a 27-gauge×½″ needle for each mouse
The Test Article- and vehicle-treated mice received daily intraperitoneal (IP) injections for 15 days. Cisplatin was administered every other workday for a total of five (5) doses via an intravenous route.
Clinical Observations of each animal were performed and recorded at least once daily for toxicity, morbidity and mortality. Morbidity included signs of illness such as, but not limited to, emaciation, dehydration, lethargy, hunched posture, unkempt appearance, dyspnea and urine or fecal staining.
In accordance with the protocol tumor measurements were taken twice weekly throughout the study by measuring the length and width of tumors with calibrated calipers. […] Tumor weights were calculated using the following formula: mg=(L×W^2)/2. Animals were euthanized either when mean tumor weight was ≧1000 mg per group over two (2) consecutive measurements, or if tumors became ulcerated, impaired the animal's ability to ambulate or obtain food and water.

[5] = molecular target: T2, KDR-expressing 293H cells (Homo sapiens, UniProt P35968); test: Bead-binding assay with peptide-conjugated fluorescent beads; assay type: cell-based; details: KDR- versus mock-transfected 293H cells, 40% FBS
T2 construct: Both PCR products were digested with Not1 and ligated together to create the full-length receptor; V5-His (of vector pcDNA6/V5-His C); expressed in transfected cells; host or cells: 293H cells (Invitrogen cat. #11631), transient, lipofectamine 2000
Protocol: The following procedures were performed to assess the ability of KDR-binding peptides to bind to KDR-expressing cells. In this procedure, KDR-binding peptides containing SEQ ID NOS:264, 337, 363, and 373 were conjugated to fluorescent beads, and their ability to bind to KDR-expressing 293H cells was assessed. The experiments show these peptides can be used to bind particles such as beads to KDR-expressing sites.
As a positive control, biotinylated anti-KDR antibody was incubated with the Neutravidin-coated beads as above, except that 0.03 mg of the biotinylated antibody preparation in PBS (Gibco #14190-136) was used instead of peptide solution. Beads can be stored at 4° C. until needed for up to 1 week.
From the above bead preparations, 0.12 mL was spun for 10 minutes at 2000 rpm in a microcentrifuge at room temperature. The supernatant was removed and 0.06 mL of MES pH 6.0 was added. Each bead solution was then vortexed and sonicated in a water bath 15 min. […] The plates were then read on a Packard FluoroCount fluorometer at excitation 550 nm/emission 620 nm. […]
To calculate the number of beads bound per well, a standard curve with increasing numbers of the same fluorescent beads was included in each assay plate. The standard curve was used to calculate the number of beads bound per well based on the fluorescence intensity of each well.

[6] = molecular target: KDR/VEGF complex on KDR-transfected 293H cells (Homo sapiens, UniProt P35968)
Protocol: Another stock solution was prepared in the same manner, but lacking VEGF. […] The mixtures were incubated on a rotator at 4 C for 60 minutes, followed by addition of 50 μL of soft release avidin-sepharose (50% slurry in ddH2O) to remove excess peptides and another incubation for 30 minutes on a rotator at 4 C. Finally, the soft release avidin-sepharose was pelleted by centrifuging at 12,000 rpm for 5 minutes at room temperature, and the resulting supernatants were used for the assays.
This establishes a utility for the assay as useful for targeting the KDR/VEGF complex in vitro and in vivo for diagnostic or therapeutic purposes.

Q: Which IC50 [1] does the source give for “Ac-AGPTWCEDDWYYCWLFGTGGGK (SEQ ID NO:277){Ac-GDSRVCWEDSWGGEVCFRYDPGGGK (SEQ ID NO:294)[JJ-Glut-NH(CH2)4-(S)—CH(NH2)C(═O)—]—NH2}—NH2 [D25]” here?
A: 5 nM

Q: For VCWEDSWGGEVCFGGGK [compound 368], which Kd (KDR) is on record?
A: 910 nM

Q: Which “Reduction of binding of peptide/avidin HRP complex in presence of serum” value [2] does the source give for “Ac-AQDWYYDEILSMADQLRHAFLSGGGGGK [SEQ ID NO:356]” here?
A: not significantly affected

Q: For AGPTWCEDDWYYCWLFGTGGGK [SEQ ID NO:277], which “Reduction of binding of peptide/avidin HRP complex in presence of serum” value [2] is on record?
A: more than 50%

Q: `CCN(CC)CCNC(=O)c1c(C)[nH]c(/C=C2\C(=O)Nc3ccc(F)cc32)c1C` [sunitinib, Sunitinib] was tested. Which “Change of tumor size as a percentage of the tumor prior sunitinib treatment” value ([3]; 48 hours after treatment, 40 mg/kg/day oral, individual rats, 40 mg/kg/day) did it give?
A: −4.6% and −0.7% and 30%

Q: And the “Change of Imax” value ([3]; 48 hours after treatment, individual rats no. 1, 2, 3)?
A: −11% and +23% and +11%

Q: What about the “Area *10 (tumor size, fundamental B-mode)” value ([3]; rat no. 1, day 108) of the same compound?
A: 20.80

Q: And the “Area *10 (tumor size, fundamental B-mode)” value ([3]; rat no. 1, day 115)?
A: 11.00

Q: And the “Area *10 (tumor size, fundamental B-mode)” value ([3]; rat no. 1, day 116)?
A: 10.10

Q: What about the “Area *10 (tumor size, fundamental B-mode)” value ([3]; rat no. 2, day 108) of the same compound?
A: 26.70

Q: And the “Area *10 (tumor size, fundamental B-mode)” value ([3]; rat no. 2, day 109)?
A: 20.20

Q: What about the “Area *10 (tumor size, fundamental B-mode)” value ([3]; rat no. 3, day 108) of the same compound?
A: 7.5

Q: What about the “Area *10 (tumor size, fundamental B-mode)” value ([3]; rat no. 3, day 114) of the same compound?
A: 2.9

Q: And the “Area *10 (tumor size, fundamental B-mode)” value ([3]; rat no. 3, day 116)?
A: 3.0

Q: For GDSRVCWEDSWGGEVCFRYGGGK [compound 372], which Kd (KDR) is on record?
A: 60 nM

Q: For `N.N.[Cl][Pt][Cl]` [Cisplatin, reference compound], which “Mean tumor weight on Study Day 22” value ([4]; Group 9, intravenous, five doses) is on record?
A: 995 mg

Q: What does the source list for “GDSRVCWEDSWGGEVCFRYDPGGGK [SEQ ID NO:294]”?
A: Binding of peptide-conjugated fluorescent beads, JJ spacer [5]: significantly improved the specific binding to KDR; Binding of tetrameric peptide/avidin-HRP complexes to KDR-transfected cells [2]: bound to KDR-transfected cells significantly better than to mock-transfected cells; Reduction of binding of peptide/avidin HRP complex in presence of serum [2]: not significantly affected

Q: For AGPGPCKGYMPHQCWYMGTGGGK [SEQ ID NO:321], which “Binding of peptide-125I-neutravidin complex in the presence of VEGF” value ([6]; KDR- versus mock-transfected cells) is on record?
A: specifically bound to KDR-transfected 293H cells

Q: What about the “Binding of peptide-125I-neutravidin complex in the absence of VEGF” value ([6]; VEGF omitted) of the same compound?
A: not where VEGF was omitted

Q: How did the VEGF-induced migration blocked ([1]; 3 micromolar) turn out when `CC(C)c1cc(/C=C(\C#N)C(=O)NCCCc2ccccc2)cc(C(C)C)c1O` [SU-1498, reference compound] was run?
A: 47%

Q: For AGPKWCEEDWYYCMITGTGGGK [SEQ ID NO:264], which “Binding of peptide-conjugated fluorescent beads, JJ spacer” value [5] is on record?
A: enhanced binding to KDR cells

Q: What about the “Binding of tetrameric peptide/avidin-HRP complexes to KDR-transfected cells” value [2] of the same compound?
A: bound to KDR-transfected cells significantly better than to mock-transfected cells

Q: What about the “Reduction of binding of peptide/avidin HRP complex in presence of serum” value [2] of the same compound?
A: not significantly affected

Q: “Ac-AQDWYYDEILJGRGGRGGRGGK (SEQ ID NO:478) {K[Ac-VCWEDSWGGEVCFRYDPGGGK (SEQ ID NO:337) (JJ-Glut)-NH2]}—NH2 [D17]” was tested. Which IC50 [1] did it give?
A: ~250 nM

Q: Which results are given for `N.N.[Cl][Pt][Cl]` [Cisplatnin]?
A: Tumor Weights ([4]; day 4 after cell injection): 34 mg; Tumor Weights ([4]; day 7 after cell injection): 160 mg; Tumor Weights ([4]; day 8 after cell injection): 173 mg; Tumor Weights ([4]; day 11 after cell injection): 407 mg; Tumor Weights ([4]; day 14 after cell injection): 675 mg; Tumor Weights ([4]; day 20 after cell injection): 635 mg; Tumor Weights ([4]; day 21 after cell injection): 839 mg; Tumor Weights ([4]; day 22 after cell injection): 995 mg

Q: For “5 CF-Gly-N{[CH2CH2C(═O)-Gly-N(CH2CH2C(═O)-Adoa-Thr-Lys-Pro-Pro-Arg-OH]2}2 [Adjunct A]”, which “Block of VEGF-induced migration” value ([1]; 100 nM alone) is on record?
A: not by 100 nM Adjunct A alone

Q: SRVCWEDSWGGEVCFRYGGGGK [compound 371] was tested. Which Kd (KDR) did it give?
A: 35 nM

Q: How did the Kd (KDR) turn out when GDSRVCWEDSWGGEVCFGGGK [compound 369] was run?
A: 1300 nM
